# Laboratory results: PMC7567334 (Environmental Health Perspectives, 2020)
# “Also recorded” adds a separate entry of the source. Like-named read-outs stand apart in the source and are kept apart here.
# What was measured:
# TRα and TRβ [1] = assay: GH3.TRE-Luc TR reporter assay, agonist setup; type: cell-based, rat; conditions: 1 μM; vs 0.1% DMSO
# TRα and TRβ [2] = assay: GH3.TRE-Luc TR reporter assay, antagonist setup (0.25 nM T3); type: cell-based, rat
# human (h) ERα [3] = target: T1, human (h) ERα (Homo sapiens, UniProt P03372); conditions: test for false positivity
# T1 sequence (P03372 1-595): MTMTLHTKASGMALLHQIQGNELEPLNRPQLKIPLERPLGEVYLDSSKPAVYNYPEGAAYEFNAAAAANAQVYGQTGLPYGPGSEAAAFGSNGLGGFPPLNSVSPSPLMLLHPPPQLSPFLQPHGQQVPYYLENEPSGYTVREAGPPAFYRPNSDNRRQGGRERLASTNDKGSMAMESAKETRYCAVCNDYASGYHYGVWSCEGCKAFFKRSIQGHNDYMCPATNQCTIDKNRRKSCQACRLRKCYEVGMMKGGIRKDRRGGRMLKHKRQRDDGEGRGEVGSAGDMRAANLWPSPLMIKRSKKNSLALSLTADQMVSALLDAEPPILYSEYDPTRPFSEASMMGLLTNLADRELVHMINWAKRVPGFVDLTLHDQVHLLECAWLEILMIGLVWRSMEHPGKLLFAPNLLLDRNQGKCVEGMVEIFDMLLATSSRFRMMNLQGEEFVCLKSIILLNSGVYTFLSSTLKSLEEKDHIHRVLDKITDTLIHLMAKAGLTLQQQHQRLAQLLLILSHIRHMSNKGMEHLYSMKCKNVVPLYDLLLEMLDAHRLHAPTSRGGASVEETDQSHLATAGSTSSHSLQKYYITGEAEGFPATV
# Androgen receptor = conditions: cited from earlier work
# [4] = ref Schebb et al. 2012, cited from earlier work
# [5] = test system: fathead minnow (Pimephales promelas); conditions: exposure to 10 μg/L; ref Ankley et al. 2010; cited from earlier work
# GR [6] = target: T2, GR (Homo sapiens, UniProt P04150); assay: PolarScreen GR Competitor binding affinity assay; set-up: purchased Invitrogen; conditions: in words; tested up to 10 μM
# T2 sequence (P04150 1-777): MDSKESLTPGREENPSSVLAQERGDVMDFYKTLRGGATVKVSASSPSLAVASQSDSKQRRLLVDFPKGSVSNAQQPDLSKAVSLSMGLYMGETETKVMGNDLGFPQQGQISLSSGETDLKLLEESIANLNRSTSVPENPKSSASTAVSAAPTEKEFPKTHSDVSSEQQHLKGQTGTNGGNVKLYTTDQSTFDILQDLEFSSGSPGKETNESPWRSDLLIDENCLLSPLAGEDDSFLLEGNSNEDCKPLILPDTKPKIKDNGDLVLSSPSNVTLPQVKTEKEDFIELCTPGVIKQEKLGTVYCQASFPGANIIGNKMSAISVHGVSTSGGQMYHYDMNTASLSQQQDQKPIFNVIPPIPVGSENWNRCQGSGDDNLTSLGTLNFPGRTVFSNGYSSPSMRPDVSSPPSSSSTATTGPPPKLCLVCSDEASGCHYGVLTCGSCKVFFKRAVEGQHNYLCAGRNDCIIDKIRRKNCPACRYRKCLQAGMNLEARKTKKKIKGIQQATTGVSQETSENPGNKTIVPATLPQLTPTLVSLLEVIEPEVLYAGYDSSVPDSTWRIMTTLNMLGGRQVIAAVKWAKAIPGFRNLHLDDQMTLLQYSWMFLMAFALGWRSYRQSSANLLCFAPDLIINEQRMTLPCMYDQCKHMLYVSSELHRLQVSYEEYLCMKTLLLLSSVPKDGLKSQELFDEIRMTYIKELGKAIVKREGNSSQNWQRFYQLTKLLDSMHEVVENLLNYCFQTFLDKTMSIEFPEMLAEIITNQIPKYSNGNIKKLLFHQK
# human (h) ERα [7] = target: T1, human (h) ERα; assay: hERα-HeLa-9903 transactivation assay, agonist setup; type: cell-based; set-up: host or cells: hERα-HeLa-9903 (HeLa derived); conditions: for higher ERα RTA than vehicle control: vs 0.1% DMSO
# GR [8] = target: T2, GR; assay: MDA-kb2 GR reporter assay, agonist setup (with FLU); type: cell-based; set-up: constitutively expressed high levels of functional GR and AR; host or cells: MDA-kb2; conditions: MDA-kb2
structure (smiles),measurement,setting,value
"O=C(Nc1ccc(Cl)cc1)Nc1ccc(Cl)c(Cl)c1 [Triclocarban, 1-(4-Chlorophenyl)-3-(3,4-dichlorophenyl) urea]",baseline TR-mediated transcriptional activity lower than vehicle control (agonist setup),TRα and TRβ [1],> 50%
same,lower TR RTA than spike-in control,"TRα and TRβ [2]; 1 μM, vs 0.1% DMSO with 0.25 nM T3",44.3%
same,"TR antagonist activity, call",TRα and TRβ [2]; GH3.TRE-Luc,Antagonist
same,concentration with TR antagonist activity,TRα and TRβ [2]; GH3.TRE-Luc,1 µM
same,estrogenic effect in presence of ER antagonist 10 μM hydroxytamoxifen,human (h) ERα [3],blocked all
same,effect on AR,"Androgen receptor; HEK-2933Y cells, ref Ahn et al. 2008, Chen et al. 2008",Enhancer of testosterone activity in HEK-2933Y cells ([Ahn et al. 2008]; [Chen et al. 2008])
same,effect on AR,"Androgen receptor; MDA-kb2 cells, ref Christen et al. 2010, Kolšek et al. 2014a, Tarnow et al. 2013",Enhancer of 5α-dihydrotestosterone activity in MDA-kb2 cells ([Christen et al. 2010]; [Kolšek et al. 2014a]; [Tarnow et al. 2013])
same,effect on AR,"Androgen receptor; T47D-ARE cells, ref Ahn et al. 2008",Enhancer of testosterone activity in T47D-ARE cells ([Ahn et al. 2008])
same,time of plasma peak after exposure,[4],≤ 48 h
same,peak plasma concentration,"[4]; six healthy volunteers, triclocarban-containing soaps",23 to 530 nM
same,effect in fathead minnow,[5],increased masculinization
same,"binding affinity assay on isolated GR, result",GR [6],did not show binding; also recorded: negative
same,higher ERα RTA than vehicle control,human (h) ERα [7]; 1 μM,53%
same,higher ERα RTA than vehicle control,human (h) ERα [7]; 5 μM,58%
same,"ERα agonist activity, call",human (h) ERα [7]; hERα-HeLa-9903,Agonist
same,concentration with ERα agonist activity,human (h) ERα [7]; hERα-HeLa-9903,1 to 5 µM
same,GR agonist activity,GR [8],no GR agonist activity
